Among the data in ChEMBL document CHEMBL1275314, “Synthesis and biological evaluation of some 1,3,4-oxadiazole derivatives” (Eur J Med Chem, 2010) are MIC and inhibition in vivo values, retold here.

Format in all cases: functional
Test [1] has as its system Talaromyces marneffei. In words: Antifungal activity against Penicillium marneffei after 3 to 4 days by serial plate dilution method.
The test system of test [2] is Escherichia coli. The test is described as follows: Antibacterial activity against Escherichia coli ATCC 25922 after 3 to 4 days by serial plate dilution method.
The test system of test [3] is Klebsiella pneumoniae. The test is described as follows: Antibacterial activity against Klebsiella pneumoniae after 3 to 4 days by serial plate dilution method.
The test system of test [4] is Mus musculus. The test is described as follows: Analgesic activity in Swiss albino mouse assessed as inhibition of heat-induced paw licking or jumping behavior at 10 mg/kg, po administered after 15 sec of heat challenge measured after 60 mins post dose by Eddy's hot plate method. As to conditions: 1 h. Background: Thermal pain tests record how soon the animal reacts.

Test [5] has as its system Staphylococcus aureus. The test is described as follows: Antibacterial activity against Staphylococcus aureus ATCC 25923 after 3 to 4 days by serial plate dilution method.
In test [6] the test system is Aspergillus fumigatus. The test is described as follows: Antifungal activity against Aspergillus fumigatus NCIM 902 after 3 to 4 days by serial plate dilution method.
Test [7] concerns Trichophyton mentagrophytes. In words: Antifungal activity against Trichophyton mentagrophytes after 3 to 4 days by serial plate dilution method.
Test [8] has as its system Mus musculus. The test is described as follows: Analgesic activity in Swiss albino mouse assessed as inhibition of heat-induced paw licking or jumping behavior at 10 mg/kg, po administered after 15 sec of heat challenge measured after 30 mins post dose by Eddy's hot plate method. To be noted: 0.5 h.
In test [9] the test system is Rattus norvegicus. The test is described as follows: Antiinflammatory activity in Wister albino rat assessed as inhibition of carrageenan-induced paw edema at 10 mg/kg, po administered 30 mins before carrageenan treatment measured after 3 hrs by plethysmometric analysis.
Test [10] deals with Aspergillus flavus. The test is described as follows: Antifungal activity against Aspergillus flavus NCIM 524 after 3 to 4 days by serial plate dilution method.
The test system of test [11] is Mus musculus. The test is described as follows: Analgesic activity in Swiss albino mouse assessed as inhibition of heat-induced paw licking or jumping behavior at 10 mg/kg, po administered after 15 sec of heat challenge measured after 90 mins post dose by Eddy's hot plate method. As to conditions: 1.5 h.
In test [12] the test system is Pseudomonas aeruginosa. In words: Antibacterial activity against Pseudomonas aeruginosa ATCC 27853 after 3 to 4 days by serial plate dilution method.

Converted amounts (≈) assume the structure as drawn.

As to `CC(C)Cc1ccc(C(C)c2nn(CN3CCN(c4ccc(Cl)cc4)CC3)c(=S)o2)cc1` (centres undefined), the minimum inhibitory concentration (MIC) in test [1], in [2], in test [3], in test [5], in test [6] and in [7] was 12.5 µg/mL (≈ 26.5 µM) throughout. Moreover, the MIC in test [10] and in test [12] was 12.5 µg/mL (≈ 26.5 µM) in each case. Besides, the inhibition in vivo at 10 mg/kg was found to be 28% in [4], 22.8% in [8], 76.6% in test [9] and 35.8% in test [11].

As to `CCOC(=O)C1CCN(Cn2nc(C(C)c3ccc(CC(C)C)cc3)oc2=S)CC1` (centres undefined), the MIC in test [1], in test [2], in test [3], in [5], in test [6] and in test [7] was 12.5 µg/mL (≈ 29 µM) in each case. The MIC in test [10] and in test [12] was 12.5 µg/mL (≈ 29 µM) in each case. The inhibition in vivo at 10 mg/kg in test [4] is 41.8%; in test [8] it was 30.6%; in test [9], 73.9%; in test [11], 55.2%.

Broadly, the MIC is the least concentration at which growth counts as inhibited. Lower therefore signals inhibition by little substance. What is called inhibition in vivo is the change of the read-out against control, counted positive when it falls.
